{"source": "patent US20160066603A1", "about": "“FULVIC ACID AND DERIVATIVES AND METHODS OF PREPARATION AND USE” (EMPIRE TECHNOLOGY DEVELOPMENT LLC, priority 2013, published 2016)", "format": "physicochemical", "experimental": "The degradation products of Example 1, recovered after three hours of hydrolysis, were evaluated as antioxidants and thermal stabilizers for PVC, low density polyethylene (LDPE), and polyvinyl alcohol (PVA) to evaluate the anti-oxidation efficiency using thermal analysis techniques (DSC, TGA, and DTG). The thermooxidative enthalpy change from DSC curves (e.g. FIGS. 1-3) and the % of HCl loss as a function of temperature represent the stability of polyethylene and PVC respectively.\nThe mechanism of stabilizing PVC is based on capturing the evolved HCl from dehydrochlorination by the metal ions and the transition metal, accordingly deactivating the catalytic role of HCl in the thermal decomposition."}
{"substance": "fulvic acid", "values": [{"measurement": "Stability compared with the PVC control polymer", "result": "more stable than the PVC control polymer"}]}
